Assay results taken from ChEMBL document CHEMBL5729128, “Phenyl and pyridinyl substituted imidazoles as modulators of RORγT” (2022).
pKd: −log10 of the molar value.

What follows are compounds tested against T1, Nuclear receptor ROR-gamma (Homo sapiens, UniProt P51449) (assay: Fluorescence Based Assay: ThermoFluor is a fluorescence based assay that estimates ligand binding affinities by measuring the effect of a ligand on protein thermal stability (Pantoliano, M. W., Petrella, E. C., Kwasnoski, J. D., Lobanov, V. S., Myslik, J., Graf, E., Carver, T., Asel, E., Springer, B. A., Lane, P., and Salemme, F. R. (2001) High-density miniaturized thermal shift assays as a general strategy for drug discovery. J Biomol Screen 6, 429-40, and Matulis, D., Kranz, J. K., Salemme, F. R., and Todd, M. J. (2005) Thermodynamic stability of carbonic anhydrase: measurements of binding affinity and stoichiometry using ThermoFluor. Biochemistry 44, 5258-66). This approach is applicable to a wide variety of systems, and rigorous in theoretical interpretation through quantitation of equilibrium binding constants (KD).).
T1 sequence (P51449 whole entry): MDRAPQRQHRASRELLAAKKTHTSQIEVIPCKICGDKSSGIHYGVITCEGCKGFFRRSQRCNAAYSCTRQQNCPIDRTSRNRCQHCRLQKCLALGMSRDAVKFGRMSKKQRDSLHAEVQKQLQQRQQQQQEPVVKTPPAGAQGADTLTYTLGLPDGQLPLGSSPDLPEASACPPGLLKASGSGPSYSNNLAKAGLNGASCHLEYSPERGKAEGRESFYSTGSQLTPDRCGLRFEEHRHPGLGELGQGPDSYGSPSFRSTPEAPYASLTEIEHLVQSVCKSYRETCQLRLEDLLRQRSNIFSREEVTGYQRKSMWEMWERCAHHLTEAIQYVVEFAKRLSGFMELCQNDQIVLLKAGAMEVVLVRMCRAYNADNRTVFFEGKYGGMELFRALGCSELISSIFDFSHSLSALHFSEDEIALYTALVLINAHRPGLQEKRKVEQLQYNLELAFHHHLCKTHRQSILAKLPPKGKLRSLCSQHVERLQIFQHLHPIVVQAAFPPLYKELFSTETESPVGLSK
Compound `CCc1nc(C(=O)NC[C@]2(O)CC[C@@H](S(C)(=O)=O)CC2)c(C)n1-c1ncc(CC(C)(C)C(F)(F)F)cc1OC(F)F` has a pKd of 7.64.
Compound `CCc1nc(C(=O)NC[C@H]2CC[C@H](S(C)(=O)=O)CC2)c(Cl)n1-c1ncc(CCCC(F)(F)F)cc1OC(F)F` has a pKd of 7.82.
For `CCc1nc(C(=O)NC[C@]2(O)CC[C@@H](S(C)(=O)=O)CC2)c(Cl)n1-c1ncc(CCCC(F)(F)F)cc1OC(F)F`, the pKd was 7.06.
